Several values for one entry are separate records, joined by “and”; a condition that tells them apart may be missing. Equal entries are not always repeated. Marks after values point to notes of the source that are not given here.
Tested on: patients with major depressive disorder (MDD)
Experiment: double-blind fixed dose comparison in major depressive disorder: efficacy (MADRS, HAMD, CGI, HAMA, QOL)
Type: in vivo, human
Design: key to QOL: LS mean change from baseline to endpoint (LOCF): aggregated 5-point item scores; higher = greater enjoyment/satisfaction; HAMD17: LS mean change from baseline to endpoint (LOCF): scale not given here
Conditions: escitalopram 4 mg, bupropion XL 150 mg, 8 weeks; for CGI % response: CGI-I response = 1 or 2; for HAMD17 % remission: HAMD17 remission <=7; for HAMD24 % response: HAMD24 response >=50% improvement; for MADRS % remission: MADRS remission <=12; for MADRS % response: MADRS response >=50% improvement; for CGI-I: LS mean (LOCF) / CGI-S: LS mean change from baseline to endpoint (LOCF) / HAMA: LS mean change from baseline to endpoint (LOCF) / HAMD17: LS mean change from baseline to endpoint (LOCF) / HAMD24 2° parameter, validated: LS mean change from baseline to endpoint (LOCF) / HAMD cognit disturb: LS mean change from baseline to endpoint (LOCF) / HAMD psychomotor: LS mean change from baseline to endpoint (LOCF) / MADRS 1° parameter, validated: LS mean change from baseline to endpoint (LOCF) / QOL: LS mean change from baseline to endpoint (LOCF): vs placebo
Experimental: This clinical study is conducted as a double-blind, randomized, fixed-dose, multicenter, parallel-group study in outpatients as shown in the Figure below: […] Approximately 135 patients are randomized to each of four treatment groups (placebo, escitalopram oxalate 4 mg, bupropion hydrochloride 150 mg, or escitalopram oxalate 4 mg/bupropion hydrochloride 150 mg), for a total of […]. A randomized, double-blind, fixed-dose, multicenter, parallel-group study is conducted in outpatients with MDD. […] Assignment to a treatment group is according to a computer-generated randomization schedule. […] The following primary efficacy assessments are performed at patient visits: […] The following secondary efficacy assessments are performed at patient visits: […] The following additional efficacy assessments are performed at patient visits: […] This scale rates the severity of the patient's current state of mental illness based on the investigator's clinical opinion with regard to a patient population with MDD. The patient is rated on a scale of 1 to 7 with 1 being normal and 7 being a patient who was among the most extremely ill. […] Based on the investigator's clinical opinion, this scale rates the total improvement or worsening in the patient's mental illness from his/her baseline assessment, regardless of whether or not the investigator considered it due to drug treatment. The patient is rated on a scale from 1 to 7 with 1 being very much improved and 7 being very much worse. […] Each item is scored on a 5 point scale with 0 reflecting no symptoms and 4 reflecting symptoms of maximum severity. […] Five-point item scores are aggregated, with higher scores indicative of greater enjoyment or satisfaction in each domain. Dosing: For the single-blind lead-in period, patients are supplied with placebo capsules. For the double-blind period, identical appearing capsules are supplied which contain placebo, escitalopram 4 mg, or bupropion extended-release 150 mg. […] All study medication is administered as a single daily dose throughout the study, preferably at the same time each evening starting on the day the medication is dispensed to the patient. Dosing is subsequently be switched to morning, if preferred. […] Patients are instructed to return all unused medication at each study visit. […] Patients are instructed to take two capsules daily as a single dose beginning on the day study medication is dispensed. […] Patients are assigned the lowest randomization number available at the site. Patients are instructed to take two capsules daily as a single dose beginning on the day study medication is dispensed. In accordance with their assigned treatment group, patients receive placebo, 4 mg escitalopram, 150 mg bupropion, or 4 mg escitalopram and 150 mg bupropion per day. […] Patients are instructed to continue taking two capsules daily as a single dose. In accordance with their assigned treatment group, patients receive placebo, 4 mg escitalopram, 150 bupropion, or 4 mg escitalopram and 150 mg bupropion per day. Efficacy: All efficacy analyses are based on the Intent-to-Treat (ITT) Population. […] All efficacy analyses are performed using both the Last Observation Carried Forward (LOCF) and the Observed Cases (OC) approach. In these analyses, the last observed value before a post-baseline missing value are carried forward to impute the missing value. […] For OC analyses, only observed values are used. […] The primary analysis is performed using the LOCF approach. Three primary comparisons between the escitalopram/bupropion combination group relative to each of the three other groups (placebo, escitalopram, or bupropion) are performed using an ANCOVA model with the treatment group and center as factors and the baseline MADRS score as a covariate. […] The analyses are carried out using a similar statistical model as used for the primary efficacy parameter. […]

Compound | CGI % response | HAMD17 % remission | HAMD24 % response | MADRS % remission | MADRS % response | CGI-I: LS mean (LOCF) | CGI-S: LS mean change from baseline to endpoint (LOCF) | HAMA: LS mean change from baseline to endpoint (LOCF) | HAMD17: LS mean change from baseline to endpoint (LOCF) | HAMD24 2° parameter, validated: LS mean change from baseline to endpoint (LOCF) | HAMD cognit disturb: LS mean change from baseline to endpoint (LOCF) | HAMD psychomotor: LS mean change from baseline to endpoint (LOCF) | MADRS 1° parameter, validated: LS mean change from baseline to endpoint (LOCF) | QOL: LS mean change from baseline to endpoint (LOCF)
CC(NC(C)(C)C)C(=O)c1cccc(Cl)c1 (racemic) [bupropion, (±)-1-(3-chlorophenyl)-2-[(1,1-dimethylethyl)amino]-1-propanone] | 46.6% and 46.62% | 29.3% and 29.32% | 42.9% and 42.86% | 37.6% and 37.59% | 43.6% and 43.61% | −0.11 | −0.27 | −1.31 | −0.75 | −1.10 | −0.21 | −0.33 | −1.08 | 1.97
CN(C)CCC[C@@]1(c2ccc(F)cc2)OCc2cc(C#N)ccc21 [escitalopram, 1-[3-(dimethyl-amino)propyl]-1-(p-fluorophenyl)-5-phthalancarbonitrile] | 56.5% and 56.49* % | 29.8% and 29.77% | 46.6% and 46.56* % | 35.9% and 35.88% | 47.3% and 47.33* % | 0.33* | −0.32* | −1.91* | −0.75 | −1.15 | −0.29 | −0.16 | −2.51* | 2.25
